We go through 21 molecules from ChEMBL document CHEMBL1134993, “Synthesis of [difluoro-(3-alkenylphenyl)-methyl]-phosphonic acids on non-crosslinked polystyrene and their evaluation as inhibitors of PTP1B” (Bioorg Med Chem Lett, 2002).

Assay [1] addresses T1, Tyrosine-protein phosphatase non-receptor type 1 (Homo sapiens) (UniProt P18031).
T1 sequence (whole entry): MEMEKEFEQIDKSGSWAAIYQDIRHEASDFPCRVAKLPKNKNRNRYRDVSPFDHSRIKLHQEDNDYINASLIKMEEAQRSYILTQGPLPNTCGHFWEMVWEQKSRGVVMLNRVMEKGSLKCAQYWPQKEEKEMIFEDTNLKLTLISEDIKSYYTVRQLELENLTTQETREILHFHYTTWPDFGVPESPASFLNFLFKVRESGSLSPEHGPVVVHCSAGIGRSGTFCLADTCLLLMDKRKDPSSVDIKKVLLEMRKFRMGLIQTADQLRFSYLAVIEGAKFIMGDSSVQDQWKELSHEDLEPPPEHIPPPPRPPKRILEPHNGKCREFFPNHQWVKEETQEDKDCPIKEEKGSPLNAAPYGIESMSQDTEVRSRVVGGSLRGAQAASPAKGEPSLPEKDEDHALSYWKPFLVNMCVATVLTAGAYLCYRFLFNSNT
Put plainly: Compound was evaluated for its percent Inhibition of protein-tyrosine phosphatase 1B (PTP1B) at the concentration of 50 uM; Showed little or no inhibition.

In assay [2] the target is T1, Tyrosine-protein phosphatase non-receptor type 1 (Homo sapiens). Briefly: Compound was evaluated for its percent Inhibition of protein-tyrosine phosphatase 1B (PTP1B) at the concentration of 50 uM.
The target of assay [3] is T2, Tyrosine-protein phosphatase non-receptor type 1 (Homo sapiens, UniProt P18031).
T2 sequence (P18031 whole entry): T1 sequence (whole entry)
Briefly: Binding affinity towards protein-tyrosine phosphatase 1B (PTP1B).

The target in assay [4] is T2, Tyrosine-protein phosphatase non-receptor type 1. Briefly: Inhibitory concentration against Protein-tyrosine phosphatase 1B (PTP1B).
Assay [5] concerns the target T1, Tyrosine-protein phosphatase non-receptor type 1 (Homo sapiens). Put plainly: Compound was evaluated for its percent Inhibition of protein-tyrosine phosphatase 1B (PTP1B) at the concentration of 50 uM; […].
Assay [6] concerns the target T2, Tyrosine-protein phosphatase non-receptor type 1. Put plainly: Inhibitory concentration against protein-tyrosine phosphatase 1B (PTB 1B).

The source made the active and inactive calls. The rule behind the calls is not given here.

The term inhibition denotes the share of the control response that was lost under treatment. Regarding `O=P(O)(O)C(F)(F)c1cccc(/C=C\c2ccccc2)c1`, the inhibition entry in assay [1] was “inactive”.

As to `CCOc1ccc(/C=C\c2cccc(C(F)(F)P(=O)(O)O)c2)cc1`, the inhibition entry in assay [1] is “inactive”.

Consider `CCOC(=O)/C=C\c1cccc(C(F)(F)P(=O)(O)O)c1`, for which, in assay [2], the inhibition was determined as 53%.

As to `Cc1ccc(/C=C\c2cccc(C(F)(F)P(=O)(O)O)c2)cc1`, the inhibition result in assay [1] was “inactive”.

Regarding `O=P(O)(O)C(F)(F)c1cccc(/C=C\c2cccc3ccccc23)c1`, the inhibition in assay [2] was 60%.

The molecule `O=P(O)(O)C(F)(F)c1cccc(/C=C\C=C\c2ccccc2)c1` yielded an inhibition in assay [2] of 70%.

In assay [2], `N#C/C=C\c1cccc(C(F)(F)P(=O)(O)O)c1` registered an inhibition of 45%.

As a reminder, the Ki is a dissociation constant, usually derived from enzyme kinetics or from competition with a known ligand. Read a low Ki as tighter binding. The term IC50 denotes the midpoint of a concentration-inhibition curve. Read a low IC50 as inhibition by little substance. Turning to `C=CCOC(=O)/C=C\c1cccc(C(F)(F)P(=O)(O)O)c1`, the affinity in assay [3] corresponds to a Ki of 8 mM. In addition, the IC50 in assay [4] stood at 12.2 mM. The molecule also gave an inhibition in assay [2] of 84%.

For the molecule `CC/C=C\c1cccc(C(F)(F)P(=O)(O)O)c1`, the inhibition result in assay [5] is “inactive”.

In assay [2], `COC(=O)/C=C\c1cccc(C(F)(F)P(=O)(O)O)c1` returned an inhibition of 23%.

As to `O=P(O)(O)C(F)(F)c1cccc(/C=C\Cl)c1`, the inhibition entry in assay [5] was “inactive”.

For `O=[N+]([O-])c1ccc(/C=C\c2cccc(C(F)(F)P(=O)(O)O)c2)cc1`, the inhibition result in assay [1] was “inactive”.

Consider `CN(C)C/C=C\c1cccc(C(F)(F)P(=O)(O)O)c1`, for which, in assay [5], the inhibition entry was “inactive”.

For `O=P(O)(O)C(F)(F)c1cccc(/C=C\CCc2ccccc2)c1`, the inhibition result in assay [5] was “inactive”.

As to `Cc1ccccc1/C=C\c1cccc(C(F)(F)P(=O)(O)O)c1`, the inhibition entry in assay [1] was “inactive”.

On to `O=P(O)(O)C(F)(F)c1cccc(/C=C\c2ccc(Cl)cc2)c1`, for which, in assay [1], the inhibition entry was “inactive”.

Regarding `O=P(O)(O)C(F)(F)c1cccc(-c2ccccc2)c1`, the IC50 in assay [6] amounted to 0.015 mM.

Take `CC(C)=C/C=C\c1cccc(C(F)(F)P(=O)(O)O)c1`: the inhibition entry in assay [5] is “inactive”.

Consider `O=P(O)(O)C(F)(F)c1cccc(/C=C\c2ccc(Br)cc2)c1`, for which, in assay [1], the inhibition result was “inactive”.

Turning to `O=P(O)(O)C(F)(F)c1cccc(/C=C\c2ccc(F)cc2)c1`, the inhibition result in assay [1] was “inactive”.

Molecule `O=C(/C=C\c1cccc(C(F)(F)P(=O)(O)O)c1)OCc1ccccc1` registered an inhibition in assay [2] of 71%.
